Source: paper PMC3285689, “Structure Based Design and Synthesis of Peptide Inhibitor of Human LOX-12: In Vitro and In Vivo Analysis of a Novel Therapeutic Agent for Breast Cancer” (PLoS ONE, 2012)
Several values for one entry are separate records, joined by “and”; a condition that tells them apart may be missing. Equal values may be shown once. Entries after “also recorded” stand apart in the source; their conditions may differ. Read-outs that look alike come from different tables or passages of the source. Each block holds one molecule with its values, some of them ahead of it. Where a SMILES comes first, the peptide text is derived from it.

Experiments:
LOX-12 [1] = target: T1, LOX-12 (Homo sapiens, UniProt P18054); test: Inhibition of human LOX-12 activity, spectrophotometric screen; format: biochemical; details: LOX-12 incubated with peptide 30 min; arachidonic acid, 0.2% Tween-20, 50 mM potassium phosphate pH 7.2; absorbance 269 nm; average of triplicates; inhibitor concentration not given
T1 construct: made in house; host or cells: E. coli BL21 codon+ (pET28a)
T1 sequence (P18054 1-663): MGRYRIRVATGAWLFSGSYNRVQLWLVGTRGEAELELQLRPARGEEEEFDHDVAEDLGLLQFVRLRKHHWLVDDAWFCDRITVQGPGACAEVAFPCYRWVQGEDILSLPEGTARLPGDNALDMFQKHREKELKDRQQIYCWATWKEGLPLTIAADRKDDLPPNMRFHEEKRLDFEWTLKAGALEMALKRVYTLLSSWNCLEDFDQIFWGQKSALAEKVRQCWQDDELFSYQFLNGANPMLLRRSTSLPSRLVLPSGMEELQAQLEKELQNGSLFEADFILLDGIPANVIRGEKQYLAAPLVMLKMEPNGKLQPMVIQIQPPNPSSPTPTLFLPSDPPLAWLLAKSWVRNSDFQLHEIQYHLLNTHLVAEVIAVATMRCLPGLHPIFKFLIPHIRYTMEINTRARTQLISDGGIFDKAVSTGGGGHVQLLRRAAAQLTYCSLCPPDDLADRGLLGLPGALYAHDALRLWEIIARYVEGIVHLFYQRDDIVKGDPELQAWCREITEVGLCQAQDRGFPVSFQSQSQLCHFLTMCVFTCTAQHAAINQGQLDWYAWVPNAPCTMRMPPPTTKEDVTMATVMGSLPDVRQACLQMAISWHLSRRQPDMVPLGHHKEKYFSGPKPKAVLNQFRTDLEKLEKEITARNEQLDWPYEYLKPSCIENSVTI
Experimental: For inhibition study, the human LOX-12 was incubated with peptide for 30 min, which was then added to the reaction buffer containing arachidonic acid (substrate), 0.2% Tween-20, 50 mM potassium phosphate buffer pH 7.2. The change in absorbance was monitored at 269 nm and the percentage of inhibition was calculated. A control reaction was always carried out without any peptide inhibitor to ensure the activity of protein under experimental conditions.
The activity assay for LOX-12 in presence of 10 different peptides with substrate was performed by using spectrophotometer. The assay was performed at 269 nm which gives the absorption maxima for the product LTB4.

MDA-MB-231 = details: 72 h; for percentage of cell viability: MDA-MB-231, MTT
Experimental: (§1) Cytotoxic effect of LOX-12 inhibitory peptides was analyzed on MCF-7 (ER+) and MDA-MB-231 (ER+) breast cancer cell lines by MTT [3-(4, 5-dimethylthiazol-2-yl)-2, 5-diphenyltetrazolium bromide] dye reduction assay. Briefly, 3×10^3 cells/100 µl media were seeded in 96-well plates 24 h before the experiment. The cells were then incubated with different concentrations of the peptides for 24, 48 and 72 h as indicated. The cells were treated with DMSO (same concentration as used to solubilise the peptide) which was then subtracted from all the cytotoxic values.10 µl/well MTT-solution (10 mg/ml in PBS) was then added and plates were further incubated for 3 h at 37°C. The formazan crystals formed were dissolved by adding 100 µl/well of dimethyl sulfoxide (DMSO). Absorbance was measured by a microplate reader at 570 nm with a reference filter 650 nm. 100 µl of medium with 10 µl of MTT stock-solution and 100 µl of DMSO was used as a blank solution to correct the background. The data obtained was presented as percentage viability in the best-fit (linear) dose response curve. The IC50 values at 95% confidence intervals was calculated for all cell lines. Each concentration was used in triplicate. The peptide AIRS was used as a negative control.
(§2) MCF-7 cells were treated with 0–150 µM (0.05% DMSO as a vehicle control) and MDA-MB-231 was treated with 0–500 µM (0.05% DMSO as a vehicle control) of the LOX-12 inhibitory peptides for 24, 48 and 72 h to perform the cytotoxic activity.

[2] = tested on: Ehrlich's Ascites Tumor cell line (EAT) (murine breast carcinoma); test: Antitumor activity in Swiss albino mice implanted with EAT tumor cell line; format: in vivo
Experimental: In-vivo animal experimentation of peptide for anticancer activity was done using mice model. Swiss albino mice were obtained from Central animal facility, AIIMS at 55–65 days of age. The animals were housed in polycarbonated cages, bedded with husk. The animal facility was environmentally controlled; mice were maintained at normal room temperature with suitable relative humidity and 12 h light, 12 h dark cycle. Animals were fed chow food and purified water ad libitum throughout the study. Animals were randomized into 5mice per cage in 3 groups (Group I, II and III) for the study.
Ehrlich's Ascites Tumor cell line (EAT) (murine breast carcinoma), was used for tumor induction. The cell line was maintained in-vivo by passaging weekly intraperitonealy (i.p) from mice to mice. For tumor induction, 14 million cells approximately 150 µl volumes was injected to the animal in a group subcutaneously on the dorsal side of the body (back) and kept under observation for tumor onset.
Tumor size was recorded by vernier calipers and tumor volume was calculated using the formula: V = 0.5×L×W^2, where L is the length (long axis) and W is the width (short axis).
In Group I (control, untreated) only tumor cell line was administered. In group II, YWCS peptide was administered when the tumor volume reached 0.22±0.10 cm^3 on day 10, at a dose of […] intravenously (i.v) per mouse once daily for 20 days from day 11 to day 30. In group III, same concentration of peptide was injected intravenously (i.v) simultaneously after injecting tumor cells subcutaneously on day one. During experimental period mice were under observation till sacrificed.

MCF-7 cells = test: Annexin-V binding apoptosis assay by flow cytometry, MCF-7; format: cell-based, human; details: 72 h, annexin-V/PI flow cytometry
Experimental: The frequency of apoptosis in MCF7 cells and MDA-MB-231 by the treatment with YWCS was assayed by annexin-V binding assay. Briefly, MCF7 cells and MDA-MB-231 were pulsed with the peptide for 72 h. After termination of the culture, cells were stained with annexin-V apoptosis detection kit (Biolegend) according to the manufacturer's instructions. The cells were washed twice with PBS, and resuspended in annexin-V binding buffer. To the cell suspension, 5 µl of FITC-conjugated annexin-V (Biolegend) and 10 µl of propidium iodide (PI) (50 µg/ml) solution were added and further incubated for 15 min at room temperature. About 10,000 events were acquired in FACS Canto flow cytometer (Becton–Dickinson, USA). The frequency of annexin-positive (apoptotic) cells was determined using BD FACSDiva software.
The apoptotic activity of the peptide YWCS was performed using annexin-V binding assay. Apoptosis induction was observed as early as 72 h.

MDA-MB-231 cells = test: Annexin-V binding apoptosis assay by flow cytometry, MDA-MB-231; format: cell-based, human; details: 72 h, annexin-V/PI flow cytometry
MCF-7 = details: MCF-7, MTT, 72 h
Experimental: as §1, §2

LOX-12 [3] = target: T1, LOX-12; test: SPR binding of peptides to immobilized His-LOX-12 (BIAcore 2000); details: His-LOX-12 on Ni2+-NTA chip, analyte 25, 50, 75 µM, flow 10 µl/min, BIA evaluation 3.0, read-out: Dissociation constant KD
LOX-12 [4] = target: T1, LOX-12; test: Kinetic assay of LOX-12 inhibition (Michaelis-Menten, competitive Ki); format: biochemical
Experimental: For kinetic assay, the above experiment was done with four different concentrations of peptides (25–100 µM). For each concentration of peptide the experiment was repeated with six different concentrations (20–120 µM) of substrate, arachidonic acid. The enzyme concentration was constant (1.0 µM) throughout the assay. The competitive kinetic constant (Ki) was calculated graphically using the Michaelis-Menton equation in graphpad prism software. The graph of activity vs. concentration of arachidonic acid was plotted.
Competitive kinetic constant of the best peptide YWCS was calculated using graphpad prism software.

human red blood cells = test: Hemolysis of human red blood cells; format: cell-based; details: concentration upto 358 µM; hRBC 1% (v/v) in PBS pH 7.0, 1 h at 37°C, absorbance 541 nm, triplicate
Experimental: The effect of peptide on hemolysis was determined by using human red blood cells (hRBC from volunteer). The freshly collected hRBC were centrifuged for 10 mins to remove the buffy coat and washed with phosphate buffered saline (PBS: 35 mM Na2HPO4, pH 7.0 and 150 mM NaCl). 100 µl of the hRBC (suspended in 1% (v/v) in PBS) and 10 µl peptide solution were added into the sterile 96 well plates in triplicate. The plates were incubated for 1 h at 37°C and centrifuged at 1000× g for 5 mins. The supernatant were transferred to fresh 96 well plates, where hemoglobin released was monitored by measuring the absorbance spectrophotometrically at 541 nm. Similar steps were carried out for Gentamycin, as a control. The percentage of hemolysis (determined in PBS and 0.1% Triton X-100) was calculated from the standard graph which was plotted with % hemolysis of prepared RBCs vs optical densities.
The haemolytic activity of the peptide was determined to ensure the toxicity to erythrocytes using human RBCs. The concentration upto 358 µM of the peptide lysed only 22% human erythrocytes ( Figure 2 ).

human LOX-12 (human) [5] = target: T2, human LOX-12 (human) (UniProt P18054)
T2 sequence: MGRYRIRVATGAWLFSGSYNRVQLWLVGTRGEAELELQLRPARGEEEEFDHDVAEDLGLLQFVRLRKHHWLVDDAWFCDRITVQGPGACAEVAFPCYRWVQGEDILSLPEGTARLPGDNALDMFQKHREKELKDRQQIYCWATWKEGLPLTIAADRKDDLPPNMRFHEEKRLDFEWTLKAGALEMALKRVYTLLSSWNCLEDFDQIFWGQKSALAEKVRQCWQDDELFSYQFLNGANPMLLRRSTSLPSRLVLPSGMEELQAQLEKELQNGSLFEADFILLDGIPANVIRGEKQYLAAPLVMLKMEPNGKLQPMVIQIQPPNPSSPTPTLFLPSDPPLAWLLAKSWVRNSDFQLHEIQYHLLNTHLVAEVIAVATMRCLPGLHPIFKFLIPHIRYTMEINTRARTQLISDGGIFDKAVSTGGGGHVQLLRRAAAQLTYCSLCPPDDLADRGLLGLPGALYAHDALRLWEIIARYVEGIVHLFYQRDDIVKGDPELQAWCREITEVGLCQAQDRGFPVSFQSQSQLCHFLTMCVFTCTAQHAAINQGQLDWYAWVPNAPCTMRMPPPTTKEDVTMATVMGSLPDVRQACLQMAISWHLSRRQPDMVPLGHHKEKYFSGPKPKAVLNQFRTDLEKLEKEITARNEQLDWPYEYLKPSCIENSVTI

human LOX-12 (human) [6] = target: T2, human LOX-12 (human); test: enzyme inhibition kinetics (spectrophotometric); 1.0 µM LOX-12 incubated with peptide (25-100 µM) for 30 min; arachidonic acid 20-120 µM, 0.2% Tween-20, 50 mM potassium phosphate pH 7.2; absorbance at 269 nm; competitive Ki from the Michaelis-Menten equation (GraphPad Prism)
human LOX-12 (human) [7] = target: T2, human LOX-12 (human); remark: listed apart in the source

Molecule: O=c1cc(-c2ccccc2)oc2cc(O)c(O)c(O)c12 [Baicalein, reference compound]
% inhibition (LOX-12 [1]): 85.1%

Molecule: N[C@@H](Cc1ccc(O)cc1)C(=O)N[C@@H](Cc1c[nH]c2ccccc12)C(=O)N[C@@H](CS)C(=O)N[C@@H](CO)C(=O)O [YWCS] (H-YWCS-OH)
IC50 (MDA-MB-231): 400 µM
percentage of cell viability (MDA-MB-231; 50 µM): 92%
percentage of cell viability (MDA-MB-231; 100 µM): 87.46%
percentage of cell viability (MDA-MB-231; 150 µM): 80.36%
percentage of cell viability (MDA-MB-231; 200 µM): 72.51%
percentage of cell viability (MDA-MB-231; 350 µM): 54.76%
percentage of cell viability (MDA-MB-231; 400 µM): 48.19%
percentage of cell viability (MDA-MB-231; 500 µM): 43.07%
Tumor volume, Day 20 ([2]; Group II, 200 µmol i.v. per mouse once daily from day 11 to day 30, control 2.09±0.06): 1.62±0.49 cm^3
Tumor volume, Day 30 ([2]; Group II, 200 µmol i.v. per mouse once daily from day 11 to day 30, control 4.5±0.24): 3.04±1.06 cm^3
Size of liver and spleen in sacrificed animals ([2]; Group II, peptide treated for 20 days, control Group I showed the same): liver and spleen enlargement
Tumor volume, Day 20 ([2]; Group III, 200 µmol peptide i.v. simultaneously after injecting EAT cells s.c. on day one): No tumor was observed; also recorded: No tumor onset
mean percentage apoptotic cells (MCF-7 cells; MCF-7, 50 µM): 41.2±5.8%
mean percentage apoptotic cells (MCF-7 cells; MCF-7, 75 µM): 49.8% and 49.8±6.5%
mean percentage apoptotic cells (MCF-7 cells; MCF-7, 100 µM): 58.3±7.5%
mean percentage apoptotic cells (MDA-MB-231 cells; MDA-MB-231, 350 µM): 15.0±1.2%
mean percentage apoptotic cells (MDA-MB-231 cells; MDA-MB-231, 400 µM): 20.8% and 20.8±3.2%
mean percentage apoptotic cells (MDA-MB-231 cells; MDA-MB-231, 450 µM): 22.1±1.5%
percentage cell viability (MCF-7; 25 µM): 88.6%
percentage cell viability (MCF-7; 50 µM): 85.7%
percentage cell viability (MCF-7; 100 µM): 31.2%
percentage cell viability (MCF-7; 150 µM): 21.1%
IC50 (MCF-7; read-out: IC50 (cell viability), triplicate): 75 µM
Kd (LOX-12 [3]): 33.9 nM
Mode of inhibition (LOX-12 [4]; linearised analysis of Michaelis-Menten data, in presence of substrate arachidonic acid): competitive mode of inhibition
Ki (LOX-12 [4]; peptide 25-100 µM, arachidonic acid 20-120 µM, enzyme 1.0 µM, Michaelis-Menten fit in graphpad prism, read-out: Competitive kinetic constant Ki): 7.25 µM
Percentage of hemolysis of human erythrocytes (human red blood cells): 22%
% inhibition (LOX-12 [1]): 86.1%

Molecule: AIYW
% inhibition (LOX-12 [1]): 69.3%

Molecule: WFC (peptide)
% inhibition of LOX-12 enzyme activity (arachidonic acid substrate, absorbance at 269 nm) (human LOX-12 (human) [5]): 72.1%

Molecule: WKS (peptide)
% inhibition of LOX-12 enzyme activity (arachidonic acid substrate, absorbance at 269 nm) (human LOX-12 (human) [5]): 53.2%

Molecule: YW (peptide)
% inhibition of LOX-12 enzyme activity (arachidonic acid substrate, absorbance at 269 nm) (human LOX-12 (human) [5]): 73.2%

Molecule: YWG (peptide)
% inhibition of LOX-12 enzyme activity (arachidonic acid substrate, absorbance at 269 nm) (human LOX-12 (human) [5]): 71.6%

Molecule: YWCS
% inhibition of LOX-12 enzyme activity (arachidonic acid substrate, absorbance at 269 nm) (human LOX-12 (human) [5]): 86.1%
Ki (human LOX-12 (human) [6]): 7.25 µM
% inhibition of LOX-12 enzyme activity (arachidonic acid substrate, absorbance at 269 nm) (human LOX-12 (human) [7]): 80%

More lines, now with the values ahead:

% inhibition (LOX-12 [1]): 74.2%
Molecule: FWCS

% inhibition of LOX-12 enzyme activity (arachidonic acid substrate, absorbance at 269 nm) (human LOX-12 (human) [5]): 80.4%
Molecule: FWY (peptide)

% inhibition of LOX-12 enzyme activity (arachidonic acid substrate, absorbance at 269 nm) (human LOX-12 (human) [5]): 79.8%
Molecule: FYS (peptide)

% inhibition of LOX-12 enzyme activity (arachidonic acid substrate, absorbance at 269 nm) (human LOX-12 (human) [5]): 73.5%
Molecule: WFA (peptide)

% inhibition of LOX-12 enzyme activity (arachidonic acid substrate, absorbance at 269 nm) (human LOX-12 (human) [5]): 69.3%
Molecule: AIYW

% inhibition of LOX-12 enzyme activity (arachidonic acid substrate, absorbance at 269 nm) (human LOX-12 (human) [5]): 74.2%
Molecule: FWCS
